The source of these data is ChEMBL document CHEMBL4828770, “Structural and Activity Relationships of 6-Sulfonyl-8-Nitrobenzothiazinones as Antitubercular Agents” (J Med Chem, 2021).

The subject of series [1] is Mycobacterium tuberculosis. The series is described as follows: Antimycobacterial activity against Mycobacterium tuberculosis H37Rv ACTT 25618 assessed as inhibition of visible growth incubated for 7 days by micro plate alamar blue assay. Format: functional. The settings on record: H37Rv ACTT 25618, 168 h, time 7 day.
The nature of series [2]: Metabolic stability in human liver microsomes assessed as clearance in presence of NADPH by LC/MS analysis. Type of series: ADME, Microsome. The settings on record: read-out: CLH.
Series [3] is described as follows: Metabolic stability in human liver microsomes assessed as half life in presence of NADPH by LC/MS analysis. Type of series: ADME, Microsome.
For series [4], the target named is T1, Decaprenylphosphoryl-beta-D-ribose oxidase (Mycobacterium tuberculosis (strain ATCC 25618 / H37Rv), UniProt P9WJF1).
T1 sequence (P9WJF1 whole entry): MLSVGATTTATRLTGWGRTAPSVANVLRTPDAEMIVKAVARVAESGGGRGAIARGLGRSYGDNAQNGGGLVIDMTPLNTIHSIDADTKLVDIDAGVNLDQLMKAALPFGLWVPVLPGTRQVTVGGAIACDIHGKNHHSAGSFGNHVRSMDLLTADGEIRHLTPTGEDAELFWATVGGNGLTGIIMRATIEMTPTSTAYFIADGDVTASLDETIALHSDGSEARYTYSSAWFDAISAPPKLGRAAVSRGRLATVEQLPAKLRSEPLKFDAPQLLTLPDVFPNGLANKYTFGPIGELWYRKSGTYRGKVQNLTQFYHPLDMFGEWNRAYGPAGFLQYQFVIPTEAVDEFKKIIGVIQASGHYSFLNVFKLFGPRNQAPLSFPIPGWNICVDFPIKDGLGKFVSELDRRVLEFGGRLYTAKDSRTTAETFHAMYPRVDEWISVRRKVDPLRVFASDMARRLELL
Put plainly: Inhibition of Mycobacterium tuberculosis recombinant DprE1 expressed in Escherichia coli assessed as formation of resorufin using FPR as substrate by Amplex Red […] coupled assay.

Series [5] addresses T2, Decaprenylphosphoryl-beta-D-ribose oxidase (Mycobacterium tuberculosis (strain ATCC 25618 / H37Rv)) (UniProt P9WJF1).
T2 sequence (whole entry): T1 sequence (P9WJF1 whole entry)
The series is described as follows: Inhibition of Mycobacterium tuberculosis H37Rv DprE1 assessed as increase in trehalose monomycolates accumulation at 100 x MIC incubated for 24 hrs using [14C]acetate by TLC based metabolic labelling assay.

In series [6] the target is T2, Decaprenylphosphoryl-beta-D-ribose oxidase (Mycobacterium tuberculosis (strain ATCC 25618 / H37Rv)). Put plainly: Inhibition of Mycobacterium tuberculosis H37Rv DprE1 assessed as increase in trehalose dimycolates accumulation at 100 x MIC incubated for 24 hrs using [14C]acetate by TLC based metabolic labelling assay.
In a further series the test system is HepG2. The series is described as follows: Cytotoxicity against human HepG2 cells assessed as cell viability incubated for 48 hrs by CCK-8 assay. Type of series: cell-based. The following applies: hepg2, 48 h.

The structures appear in SMILES notation. The source made the active and inactive calls. The rule behind the calls is not given here.

Take `CN(Cc1nnc(-c2cc(F)cc(F)c2)o1)c1nc(=O)c2cc(S(C)(=O)=O)cc([N+](=O)[O-])c2s1`: the minimal inhibitory concentration (MIC) in series [1] was 0.022 µM.
Consider `CN(Cc1csc(-c2ccccc2)n1)c1nc(=O)c2cc(S(C)(=O)=O)cc([N+](=O)[O-])c2s1`, for which the CLint scaled in series [2] amounted to 107 mL/min/kg. In addition, in series [3], the half-life was 16.2 min. For the same compound, the MIC in series [1] was 0.023 µM.
`CN(Cc1cn(-c2cc(F)cc(F)c2)nn1)c1nc(=O)c2cc(S(C)(=O)=O)cc([N+](=O)[O-])c2s1`: in series [1], the minimal inhibitory concentration (MIC) amounted to 0.022 µM.
Still for that read-out and setting: the same measure for `CN(Cc1nnc(-c2cccc(F)c2)s1)c1nc(=O)c2cc(S(C)(=O)=O)cc([N+](=O)[O-])c2s1`: 0.045 µM.
On the same count and under the same terms, to `CN(Cc1coc(-c2ccc(F)cc2)n1)c1nc(=O)c2cc(S(C)(=O)=O)cc([N+](=O)[O-])c2s1` belongs 0.031 µM; to `C[C@H](c1cn(-c2ccccc2)nn1)N(C)c1nc(=O)c2cc(S(C)(=O)=O)cc([N+](=O)[O-])c2s1`, more than 4.2 µM; to `CN(Cc1cn(-c2cnoc2)nn1)c1nc(=O)c2cc(S(C)(=O)=O)cc([N+](=O)[O-])c2s1`, 0.065 µM.
Consider `CC(C)S(=O)(=O)c1cc([N+](=O)[O-])c2sc(N3CCN(CC4CCCCC4)CC3)nc(=O)c2c1`, for which, in series [1], the minimal inhibitory concentration (MIC) was less than 0.001 µM.
On the same count and under the same terms, the same measure for `CN(Cc1csc(-c2cccc(F)c2)n1)c1nc(=O)c2cc(S(C)(=O)=O)cc([N+](=O)[O-])c2s1`: 0.024 µM.
Consider `CN(Cc1cn(-c2cccc(Br)c2)nn1)c1nc(=O)c2cc(S(C)(=O)=O)cc([N+](=O)[O-])c2s1`, for which, in series [1], the minimum inhibitory concentration (MIC) stood at 0.044 µM.
The same measure, in the same setting: to `Cc1ccc(-n2cc(CN(C)c3nc(=O)c4cc(S(C)(=O)=O)cc([N+](=O)[O-])c4s3)nn2)cc1` belongs 0.115 µM.
Take `CN(Cc1csc(-c2ccc(F)cc2)n1)c1nc(=O)c2cc(S(C)(=O)=O)cc([N+](=O)[O-])c2s1`: the MIC in series [1] was 0.057 µM.
On the same count and under the same terms, to `CN(Cc1nnc(-c2ccc(F)cc2F)s1)c1nc(=O)c2cc(S(C)(=O)=O)cc([N+](=O)[O-])c2s1` belongs 0.023 µM.
`CS(=O)(=O)c1cc([N+](=O)[O-])c2sc(N3CCN(CC4CCCCC4)CC3)nc(=O)c2c1`: the CLint scaled in series [2] was 89.8 mL/min/kg. Besides, in series [3], the half-life is 25.8 min.
Turning to `CN(Cc1cn(-c2cccc(C#N)c2)nn1)c1nc(=O)c2cc(S(C)(=O)=O)cc([N+](=O)[O-])c2s1`, the MIC in series [1] worked out at 0.048 µM.
Turning to `CN(Cc1ccc2c(c1)OCCO2)c1nc(=O)c2cc(S(C)(=O)=O)cc([N+](=O)[O-])c2s1`, in series [1], the minimum inhibitory concentration (MIC) came to 0.066 µM.
With `CN(Cc1cn(-c2cc(F)ccc2F)nn1)c1nc(=O)c2cc(S(C)(=O)=O)cc([N+](=O)[O-])c2s1`, the MIC in series [1] worked out at 0.011 µM.
Take `CN(Cc1nnc(-c2ccc(F)cc2)o1)c1nc(=O)c2cc(S(C)(=O)=O)cc([N+](=O)[O-])c2s1`: the MIC in series [1] came out at 0.061 µM.
Same read-out and setting: the same measure for `CN(Cc1coc(C2CCCCC2)n1)c1nc(=O)c2cc(S(C)(=O)=O)cc([N+](=O)[O-])c2s1`: 0.433 µM; for `CN(Cc1cn(Cc2ccccc2)nn1)c1nc(=O)c2cc(S(C)(=O)=O)cc([N+](=O)[O-])c2s1`: 0.309 µM; for `CN(Cc1nnc(-c2ccc(F)cc2F)o1)c1nc(=O)c2cc(S(C)(=O)=O)cc([N+](=O)[O-])c2s1`: 0.045 µM.
Same read-out and setting: the same measure for `CN(Cc1nnc(-c2cc(F)cc(F)c2)s1)c1nc(=O)c2cc(S(C)(=O)=O)cc([N+](=O)[O-])c2s1`: 0.023 µM; for `CN(Cc1nnc(-c2ccc(F)c(F)c2)s1)c1nc(=O)c2cc(S(C)(=O)=O)cc([N+](=O)[O-])c2s1`: 0.031 µM.
Still for that read-out and setting: the same measure for `CCS(=O)(=O)c1cc([N+](=O)[O-])c2sc(N3CCN(CC4CCCCC4)CC3)nc(=O)c2c1`: less than 0.001 µM.
Take `CN(Cc1nnc(-c2ccccc2)o1)c1nc(=O)c2cc(S(C)(=O)=O)cc([N+](=O)[O-])c2s1`: in series [2], the CLint scaled was 37.8 mL/min/kg. For the same compound, the IC50 in series [4] turned out to be 2100 nM. In series [3], the half-life was 45.9 min. Further, the outcome in series [5] and in series [6] was Active. In the series on HepG2, the Activity entry is reported as “Non-Toxic”. In addition, the MIC in series [1] is 0.03 µM.
In the case of `CN(Cc1cn(-c2ccc(F)c(F)c2)nn1)c1nc(=O)c2cc(S(C)(=O)=O)cc([N+](=O)[O-])c2s1`, in series [1], the MIC worked out at 0.022 µM.
On the same count and under the same terms, the same measure for `CN(Cc1cn(-c2cccc(C(F)(F)F)c2)nn1)c1nc(=O)c2cc(S(C)(=O)=O)cc([N+](=O)[O-])c2s1`: 0.044 µM; for `Cc1cccc(-n2cc(CN(C)c3nc(=O)c4cc(S(C)(=O)=O)cc([N+](=O)[O-])c4s3)nn2)c1`: 0.1 µM.
On the same count and under the same terms, to `CN(Cc1nnc(-c2ccc(F)cc2)s1)c1nc(=O)c2cc(S(C)(=O)=O)cc([N+](=O)[O-])c2s1` belongs 0.047 µM.
In the case of `CN(Cc1cn(Cc2cnoc2)nn1)c1nc(=O)c2cc(S(C)(=O)=O)cc([N+](=O)[O-])c2s1`, the minimal inhibitory concentration (MIC) in series [1] was more than 2 µM.
On to `CN(CCN(C)c1nc(=O)c2cc(S(C)(=O)=O)cc([N+](=O)[O-])c2s1)CC1CCCCC1`, for which, in series [1], the MIC amounted to 0.148 µM.
Still for that read-out and setting: the same measure for `CN(Cc1nnc(-c2cccc(F)c2)o1)c1nc(=O)c2cc(S(C)(=O)=O)cc([N+](=O)[O-])c2s1`: 0.049 µM.
For `CN(Cc1ccccc1)c1nc(=O)c2cc(S(C)(=O)=O)cc([N+](=O)[O-])c2s1`, the minimal inhibitory concentration (MIC) in series [1] worked out at 0.253 µM.
Turning to `CN(Cc1cn(-c2ccc(F)cc2)nn1)c1nc(=O)c2cc(S(C)(=O)=O)cc([N+](=O)[O-])c2s1`, the MIC in series [1] worked out at 0.024 µM.
Regarding `CN(Cc1cn(-c2ccccc2F)nn1)c1nc(=O)c2cc(S(C)(=O)=O)cc([N+](=O)[O-])c2s1`, the minimum inhibitory concentration (MIC) in series [1] was found to be 0.031 µM.
For `CN(Cc1cn(-c2cccc(F)c2)nn1)c1nc(=O)c2cc(S(C)(=O)=O)cc([N+](=O)[O-])c2s1`, the MIC in series [1] was 0.014 µM.
Same read-out and setting: to `CN(Cc1cn(-c2cccnc2)nn1)c1nc(=O)c2cc(S(C)(=O)=O)cc([N+](=O)[O-])c2s1` belongs 0.533 µM.
With `O=c1nc(N2CCN(CC3CCCCC3)CC2)sc2c([N+](=O)[O-])cc(C(F)(F)F)cc12` [MACOZINONE], in series [2], the CLint scaled amounted to 22.8 mL/min/kg. In addition, the half-life in series [3] came to 76.3 min. For the same compound, in series [1], the MIC is less than 0.2 ng/mL.
Take `CN(Cc1coc(-c2ccccc2)n1)c1nc(=O)c2cc(S(C)(=O)=O)cc([N+](=O)[O-])c2s1`: in series [2], the CLint scaled is 82.7 mL/min/kg. For the same compound, the IC50 in series [4] was found to be 940 nM. Also, the half-life in series [3] worked out at 21 min. Further, the MIC in series [1] is 0.021 µM.
Turning to `CN(Cc1cn(C2CCCCC2)nn1)c1nc(=O)c2cc(S(C)(=O)=O)cc([N+](=O)[O-])c2s1`, the minimum inhibitory concentration (MIC) in series [1] was found to be 0.047 µM.
For the compound `CN(c1nc(=O)c2cc(S(C)(=O)=O)cc([N+](=O)[O-])c2s1)C1(c2cn(-c3ccccc3)nn2)CC1`, the MIC in series [1] is more than 4 µM.
Take `CN(Cc1cn(-c2c(F)cccc2F)nn1)c1nc(=O)c2cc(S(C)(=O)=O)cc([N+](=O)[O-])c2s1`: the minimum inhibitory concentration (MIC) in series [1] was 0.28 µM.
Same read-out and setting: the same measure for `CN(Cc1cn(-c2cccc(Cl)c2)nn1)c1nc(=O)c2cc(S(C)(=O)=O)cc([N+](=O)[O-])c2s1`: 0.089 µM; for `CN(Cc1cn(-c2ccc(F)cc2F)nn1)c1nc(=O)c2cc(S(C)(=O)=O)cc([N+](=O)[O-])c2s1`: 0.024 µM.
Turning to `CN(Cc1cn(-c2cccc(I)c2)nn1)c1nc(=O)c2cc(S(C)(=O)=O)cc([N+](=O)[O-])c2s1`, the MIC in series [1] came to 0.055 µM.
Same read-out and setting: to `CN(Cc1nnc(-c2ccc(F)c(F)c2)o1)c1nc(=O)c2cc(S(C)(=O)=O)cc([N+](=O)[O-])c2s1` belongs 0.043 µM.
`COc1cccc(-n2cc(CN(C)c3nc(=O)c4cc(S(C)(=O)=O)cc([N+](=O)[O-])c4s3)nn2)c1`: the MIC in series [1] is 0.199 µM.
`CN(Cc1cn(-c2ccccc2)nn1)c1nc(=O)c2cc(S(C)(=O)=O)cc([N+](=O)[O-])c2s1`: the CLint scaled in series [2] amounted to 32.4 mL/min/kg. Also, the half-inhibitory concentration (IC50) in series [4] turned out to be 780 nM. Besides, in series [3], the half-life stood at 53.7 min. Besides, the outcome in series [5] and in series [6] was Active. Also, the Activity result in the series on HepG2 is on record as “Non-Toxic”. Moreover, the minimal inhibitory concentration (MIC) in series [1] was found to be 0.0006 µM.
Take `CN(Cc1nnc(-c2ccccc2)s1)c1nc(=O)c2cc(S(C)(=O)=O)cc([N+](=O)[O-])c2s1`: the CLint scaled in series [2] was determined as 128 mL/min/kg. In series [3], the half-life was 13.2 min. In addition, in series [1], the MIC worked out at 0.037 µM.
On to `CCN(Cc1cn(-c2ccccc2)nn1)c1nc(=O)c2cc(S(C)(=O)=O)cc([N+](=O)[O-])c2s1`, for which the MIC in series [1] was 0.201 µM.
Still for that read-out and setting: the same measure for `C[C@@H](c1cn(-c2ccccc2)nn1)N(C)c1nc(=O)c2cc(S(C)(=O)=O)cc([N+](=O)[O-])c2s1`: 0.252 µM.
